Drawing on BindingDB's records for doi:10.1021/acs.jmedchem.9b01161 (Research Triangle Institute, 2019), this text covers IC50 for two compounds.

In assay [1] the target is T1, Cannabinoid receptor 1 (Homo sapiens, UniProt P21554). Nature of the assay: Allosteric modulator activity at human CB1 receptor expressed in CHO-RD-HGA16 cells co-expressing Galpha16 assessed as suppression of 100 nM CP55,940-induced calcium mobilization pre-incubated for 15 mins by Calcium 5 dye based FLIPR assay.
Assay [2] concerns the target T1, Cannabinoid receptor 1. The assay is described as follows: Allosteric modulator activity at human CB1 receptor expressed in HEK293 cell membranes assessed as suppression of 100 nM CP55,940-induced [35S]GTPgammaS binding incubated for 60 mins by scintillation counting method.

T1 sequence (P21554 whole entry): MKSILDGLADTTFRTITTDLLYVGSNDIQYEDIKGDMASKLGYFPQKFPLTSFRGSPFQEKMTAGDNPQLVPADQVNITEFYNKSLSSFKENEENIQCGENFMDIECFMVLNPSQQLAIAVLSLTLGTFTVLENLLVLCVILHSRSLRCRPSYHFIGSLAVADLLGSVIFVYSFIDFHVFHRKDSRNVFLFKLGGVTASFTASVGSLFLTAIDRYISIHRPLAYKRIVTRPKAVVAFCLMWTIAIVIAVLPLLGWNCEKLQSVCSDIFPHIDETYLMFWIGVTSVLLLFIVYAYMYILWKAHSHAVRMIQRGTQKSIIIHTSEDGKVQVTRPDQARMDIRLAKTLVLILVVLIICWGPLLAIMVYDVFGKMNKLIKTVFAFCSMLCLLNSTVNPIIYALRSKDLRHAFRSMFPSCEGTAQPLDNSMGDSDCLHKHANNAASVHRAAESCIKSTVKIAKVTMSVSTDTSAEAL

Take `O=C(Nc1ccc(Cl)cc1)N[C@H]1C[C@H]1c1ccccc1`: the IC50 in assay [1] and in assay [2] was greater than 10 µM each time.

Turning to `COc1ccc(-c2cccc(N3CCCC3)n2)cc1NC(=O)Nc1ccc(Cl)cc1`, the IC50 in assay [2] was greater than 10 µM.
